These results are taken from US8846947B2, “Benzimidazoles and related analogs as sirtuin modulators” (GlaxoSmithKline LLC, priority 2008, dated 2014).

This assay concerns the target T1, SIRT1 (Homo sapiens, UniProt Q96EB6).
T1 sequence (Q96EB6 1-747): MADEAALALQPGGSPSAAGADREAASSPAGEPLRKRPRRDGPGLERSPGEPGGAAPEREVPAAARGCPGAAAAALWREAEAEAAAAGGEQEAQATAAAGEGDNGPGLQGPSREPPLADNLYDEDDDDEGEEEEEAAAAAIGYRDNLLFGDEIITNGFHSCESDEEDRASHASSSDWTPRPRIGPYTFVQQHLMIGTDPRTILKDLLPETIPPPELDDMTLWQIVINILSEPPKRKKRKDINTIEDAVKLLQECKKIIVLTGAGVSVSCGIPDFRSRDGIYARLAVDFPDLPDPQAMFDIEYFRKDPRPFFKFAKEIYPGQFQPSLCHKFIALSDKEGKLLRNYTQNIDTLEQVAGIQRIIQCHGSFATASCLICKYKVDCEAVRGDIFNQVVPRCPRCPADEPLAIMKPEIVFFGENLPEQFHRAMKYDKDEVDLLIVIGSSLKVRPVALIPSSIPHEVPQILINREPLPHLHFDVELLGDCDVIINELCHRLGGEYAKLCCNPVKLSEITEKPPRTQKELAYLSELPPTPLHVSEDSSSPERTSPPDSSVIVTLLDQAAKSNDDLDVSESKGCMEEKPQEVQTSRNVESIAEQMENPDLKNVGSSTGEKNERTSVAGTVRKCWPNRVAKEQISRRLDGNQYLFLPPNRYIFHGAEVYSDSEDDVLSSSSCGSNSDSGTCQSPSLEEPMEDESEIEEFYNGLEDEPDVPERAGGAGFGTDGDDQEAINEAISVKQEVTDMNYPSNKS
The experiment in a line: Mass spectrometry based SIRT1 deacetylase activation assay (acetylated p53-derived peptide substrate). It is filed as biochemical.

Where [1] appears, read: 0.5 μM peptide substrate, 120 μM βNAD+, 10 nM SIRT1, 25 minutes at 25° C.
Setting [2] is: 0.5 μM peptide substrate, 120 μM βNAD+, 10 nM SIRT1, 25 min at 25° C.
[3] abbreviates: 0.5 μM peptide substrate, 120 μM βNAD+, 10 nM SIRT1, 25 min at 25° C., read-out: EC1.5.

Where two headings read alike, the source gives them in different places.

In the case of `C[C@@H]1CN(CCOc2ccccc2-c2nc3c(C(=O)Nc4ccccn4)cccc3[nH]2)C[C@H](C)O1` [Compound 610], under setting [1], the EC1.5 entry is listed as “B (EC1.5 1-25 uM)” and the “Fold Act. (percent maximum fold activation)” value is “A (Fold activation >200%)”.

As for `O=C(Nc1cc[n+]([O-])cc1)c1cccc2[nH]c(-c3cc(F)ccc3C(F)(F)F)nc12` [Compound 322], the EC1.5 result is listed as “A (EC1.5<1.0 uM)” and the “Fold Act. (percent maximum fold activation)” value was “A (Fold activation >200%)”.

For the compound `O=C(Nc1ccncn1)c1cncc2[nH]c(-c3ccc(N4CCCC4)cc3C(F)F)nc12` [Compound 803], under setting [1], the EC1.5 result is reported as “A (EC1.5<1.0 uM)” and the “Fold Act. (percent maximum fold activation)” value is “A (Fold activation >200%)”.

Turning to `O=C(NCc1ccccn1)c1cccc2[nH]c(-c3ccc(Cl)cc3C(F)(F)F)nc12` [Compound 433], under setting [2], the “Fold Act. (percent maximum fold activation)” value was “B (Fold Activation <200%)”. The EC1.5 under setting [3] lay within 1000 to 25000 nM.

`Cc1cnc(NC(=O)c2cncc3[nH]c(-c4ccc(N5CCOCC5)cc4C(F)F)nc23)s1` [Compound 805]: under setting [1], the EC1.5 result is given as “A (EC1.5<1.0 uM)” and the “Fold Act. (percent maximum fold activation)” value is on record as “A (Fold activation >200%)”.

With `O=C(NC1CCOC1=O)c1cccc2[nH]c(-c3ccc(Cl)cc3C(F)(F)F)nc12` (centres unmarked) [Compound 355], the EC1.5 entry was “B (EC1.5 1-25 uM)” and the “Fold Act. (percent maximum fold activation)” value is on record as “A (Fold activation >200%)”.

Regarding `O=C(Nc1nccs1)c1cccc2[nH]c(-c3ccc(N4CC[C@@H](F)C4)cc3C(F)(F)F)nc12` [Compound 608], under setting [1], the EC1.5 result is recorded as “A (EC1.5<1.0 uM)” and the “Fold Act. (percent maximum fold activation)” value is given as “A (Fold activation >200%)”.

On to `O=C(Nc1cccnc1)c1cc(F)cc2[nH]c(-c3ccc(OC[C@@H](O)CO)cc3C(F)F)nc12` [Compound 841], for which, under setting [1], the EC1.5 entry is “A (EC1.5<1.0 uM)” and the “Fold Act. (percent maximum fold activation)” value is given as “A (Fold activation >200%)”.

Regarding `O=C(Nc1ccccn1)c1cc(N2CCOCC2)cc2[nH]c(-c3cc(F)ccc3C(F)F)nc12` [Compound 769], under setting [1], the EC1.5 result is on record as “A (EC1.5<1.0 uM)” and the “Fold Act. (percent maximum fold activation)” value is listed as “A (Fold activation >200%)”.

Regarding `CC1(C)CN(c2ccc(C(F)(F)F)c(-c3nc4c(C(=O)Nc5ccccn5)cccc4[nH]3)c2)CCO1` [Compound 709], under setting [1], the EC1.5 result is on record as “A (EC1.5<1.0 uM)” and the “Fold Act. (percent maximum fold activation)” value was “A (Fold activation >200%)”.

As to `O=C(Nc1cccc2[nH]c(-c3ccc(Cl)cc3C(F)(F)F)nc12)c1cnccn1` [Compound 419], under setting [2], the “Fold Act. (percent maximum fold activation)” value is “A (Fold activation >200%)”. For the same compound, under setting [3], the EC1.5 fell in the range of 1000 to 25000 nM.

For `O=C(Nc1nccs1)c1cccc2[nH]c(-c3cc(F)cc(Cl)c3OCCN3CCOCC3)nc12` [Compound 543], the “Fold Act. (percent maximum fold activation)” value under setting [2] is listed as “B (Fold Activation <200%)”. Moreover, the EC1.5 under setting [3] lay within 1000 to 25000 nM.

In the case of `O=C(NC1CCOCC1)c1cccc2[nH]c(-c3cc(F)ccc3C(F)(F)F)nc12` [Compound 437], the “Fold Act. (percent maximum fold activation)” value under setting [2] is “B (Fold Activation <200%)”. Also, the EC1.5 under setting [3] was greater than 25000 nM.

For `O=C(NCc1ccccn1)c1cccc2[nH]c(-c3cccc(C(F)(F)F)c3)nc12` [Compound 252], the EC1.5 entry was “B (EC1.5 1-25 uM)” and the “Fold Act. (percent maximum fold activation)” value is “A (Fold activation >200%)”.

As to `O=C(Nc1nccs1)c1cccc2[nH]c(-c3cccnc3N3CCNCC3)nc12` [Compound 282], the EC1.5 entry is “B (EC1.5 1-25 uM)” and the “Fold Act. (percent maximum fold activation)” value was “A (Fold activation >200%)”.

Consider `O=C(Nc1ccccn1)c1cccc2[nH]c(-c3ccc(F)cc3C(F)F)nc12` [Compound 561], for which the “Fold Act. (percent maximum fold activation)” value under setting [2] was “A (Fold activation >200%)”. Also, the EC1.5 under setting [3] was less than 1000 nM.

Regarding `Cc1cnc(NC(=O)c2cccc3[nH]c(-c4ccc5c(c4)NC(=O)CO5)nc23)s1` [Compound 534], the “Fold Act. (percent maximum fold activation)” value under setting [2] is recorded as “A (Fold activation >200%)”. Besides, the EC1.5 under setting [3] is less than 1000 nM.

Turning to `O=C(Nc1ccncn1)c1cccc2[nH]c(-c3ccc(N4CCOCC4)cc3C(F)F)nc12` [Compound 593], the “Fold Act. (percent maximum fold activation)” value under setting [2] is listed as “A (Fold activation >200%)”. Further, the EC1.5 under setting [3] was less than 1000 nM.

`O=C(Nc1ccc(CN2CCCC2)cc1)c1cccc2[nH]c(-c3ccc(CN4CCCC4)cc3C(F)(F)F)nc12` [Compound 869, 2-(4-(pyrrolidin-1-ylmethyl)-2-(trifluoromethyl)phenyl)-N-(4-(pyrrolidin-1-ylmethyl)phenyl)-1H-benzo[d]imidazole-4-carboxamide]: under setting [1], the EC1.5 result is recorded as “A (EC1.5<1.0 uM)” and the “Fold Act. (percent maximum fold activation)” value was “A (Fold activation >200%)”.

On to `Cc1nc(-c2ccccc2)sc1-c1nc2c(C(=O)Nc3cccnc3)cccc2[nH]1` [Compound 410], for which the “Fold Act. (percent maximum fold activation)” value under setting [2] is “B (Fold Activation <200%)”. Under setting [3], the EC1.5 was less than 1000 nM.

With `O=C(Nc1cccc(OCC(O)CO)c1)c1cccc2[nH]c(-c3cccnc3)nc12` (centres unmarked) [Compound 794], under setting [1], the EC1.5 result is “A (EC1.5<1.0 uM)” and the “Fold Act. (percent maximum fold activation)” value was “A (Fold activation >200%)”.

For the compound `Cc1cnc(NC(=O)c2cccc3[nH]c(-c4ccccc4C(F)F)nc23)s1` [Compound 515], the “Fold Act. (percent maximum fold activation)” value under setting [2] is listed as “A (Fold activation >200%)”. For the same compound, the EC1.5 under setting [3] is less than 1000 nM.

Turning to `FC(F)(F)c1cccc(-c2nc3c(Nc4ccccn4)cccc3[nH]2)c1` [Compound 581, N-(pyridin-2-yl)-2-(3-(trifluoromethyl)phenyl)-1H-benzo[d]imidazol-4-amine], the “Fold Act. (percent maximum fold activation)” value under setting [2] was “B (Fold Activation <200%)”. Under setting [3], the EC1.5 was greater than 25000 nM.

As for `Cc1cc(NC(=O)c2cccc3[nH]c(-c4cccc(C(F)(F)F)c4)nc23)no1` [Compound 299], the EC1.5 entry was “B (EC1.5 1-25 uM)” and the “Fold Act. (percent maximum fold activation)” value was “A (Fold activation >200%)”.

For the compound `O=C(Nc1nccs1)c1cccc2[nH]c(-c3ccccc3CN3CCOCC3)nc12` [Compound 267], the EC1.5 entry was “B (EC1.5 1-25 uM)” and the “Fold Act. (percent maximum fold activation)” value is “A (Fold activation >200%)”.

On to `O=C(Nc1cccc(OC[C@H](O)CO)c1)c1cccc2[nH]c(-c3ccccc3F)nc12` [Compound 784], for which, under setting [1], the EC1.5 entry was “A (EC1.5<1.0 uM)” and the “Fold Act. (percent maximum fold activation)” value was “A (Fold activation >200%)”.

For `CC(C)N1CCN(CCOc2ccccc2-c2nc3c(C(=O)Nc4ccccn4)cccc3[nH]2)CC1` [Compound 486], the “Fold Act. (percent maximum fold activation)” value under setting [2] was “A (Fold activation >200%)”. The EC1.5 under setting [3] fell in the range of 1000 to 25000 nM.

For the compound `CC1(C)Cc2cc(-c3nc4c(C(=O)Nc5nccs5)cccc4[nH]3)ccc2O1` [Compound 445], under setting [2], the “Fold Act. (percent maximum fold activation)” value is “A (Fold activation >200%)”. In addition, the EC1.5 under setting [3] lay in the range of 1000 to 25000 nM.

Consider `O=C(Nc1cccc(OC[C@H](O)CO)c1)c1cccc2[nH]c(-c3cccc(Cl)c3)nc12` [Compound 782], for which, under setting [1], the EC1.5 result was “A (EC1.5<1.0 uM)” and the “Fold Act. (percent maximum fold activation)” value was “A (Fold activation >200%)”.

As to `CCCN1CCc2cc(-c3nc4c(C(=O)Nc5nccs5)cccc4[nH]3)ccc21` [Compound 444], the “Fold Act. (percent maximum fold activation)” value under setting [2] was “B (Fold Activation <200%)”. Besides, the EC1.5 under setting [3] is greater than 25000 nM.

Take `O=C(Nc1cccnc1)c1cncc2[nH]c(-c3ccc(N4CCOCC4)cc3C(F)F)nc12` [Compound 807]: under setting [1], the EC1.5 result is on record as “A (EC1.5<1.0 uM)” and the “Fold Act. (percent maximum fold activation)” value is reported as “A (Fold activation >200%)”.
